Reference: ChEMBL document CHEMBL3991601, “The target landscape of clinical kinase drugs” (Science, 2017)
Calls of active or inactive are those of the source. On the calls: in the data inactive means no Kd found up to 30 µM.

How the values were obtained:
[1] = target: T1, Protein kinase C zeta type (Homo sapiens, UniProt Q05513)
T1 sequence (Q05513 whole entry): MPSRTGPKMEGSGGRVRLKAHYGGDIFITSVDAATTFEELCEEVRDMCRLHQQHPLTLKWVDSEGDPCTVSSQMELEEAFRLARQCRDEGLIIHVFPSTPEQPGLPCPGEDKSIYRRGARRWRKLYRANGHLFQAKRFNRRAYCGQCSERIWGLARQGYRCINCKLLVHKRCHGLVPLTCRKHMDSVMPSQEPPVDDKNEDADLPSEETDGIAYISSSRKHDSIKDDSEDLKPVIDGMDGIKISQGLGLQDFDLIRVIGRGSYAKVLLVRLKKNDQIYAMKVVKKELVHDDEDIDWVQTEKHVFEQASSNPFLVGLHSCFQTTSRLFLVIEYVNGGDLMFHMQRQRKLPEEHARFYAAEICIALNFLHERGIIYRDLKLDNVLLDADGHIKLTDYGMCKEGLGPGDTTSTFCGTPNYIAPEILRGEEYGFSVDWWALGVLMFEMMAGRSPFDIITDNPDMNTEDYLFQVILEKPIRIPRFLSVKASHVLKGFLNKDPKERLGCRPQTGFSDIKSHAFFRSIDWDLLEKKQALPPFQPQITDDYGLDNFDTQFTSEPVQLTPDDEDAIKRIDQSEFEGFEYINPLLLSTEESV

[2] = target: T2, Tyrosine-protein kinase Mer (Homo sapiens, UniProt Q12866)
T2 sequence (Q12866 whole entry): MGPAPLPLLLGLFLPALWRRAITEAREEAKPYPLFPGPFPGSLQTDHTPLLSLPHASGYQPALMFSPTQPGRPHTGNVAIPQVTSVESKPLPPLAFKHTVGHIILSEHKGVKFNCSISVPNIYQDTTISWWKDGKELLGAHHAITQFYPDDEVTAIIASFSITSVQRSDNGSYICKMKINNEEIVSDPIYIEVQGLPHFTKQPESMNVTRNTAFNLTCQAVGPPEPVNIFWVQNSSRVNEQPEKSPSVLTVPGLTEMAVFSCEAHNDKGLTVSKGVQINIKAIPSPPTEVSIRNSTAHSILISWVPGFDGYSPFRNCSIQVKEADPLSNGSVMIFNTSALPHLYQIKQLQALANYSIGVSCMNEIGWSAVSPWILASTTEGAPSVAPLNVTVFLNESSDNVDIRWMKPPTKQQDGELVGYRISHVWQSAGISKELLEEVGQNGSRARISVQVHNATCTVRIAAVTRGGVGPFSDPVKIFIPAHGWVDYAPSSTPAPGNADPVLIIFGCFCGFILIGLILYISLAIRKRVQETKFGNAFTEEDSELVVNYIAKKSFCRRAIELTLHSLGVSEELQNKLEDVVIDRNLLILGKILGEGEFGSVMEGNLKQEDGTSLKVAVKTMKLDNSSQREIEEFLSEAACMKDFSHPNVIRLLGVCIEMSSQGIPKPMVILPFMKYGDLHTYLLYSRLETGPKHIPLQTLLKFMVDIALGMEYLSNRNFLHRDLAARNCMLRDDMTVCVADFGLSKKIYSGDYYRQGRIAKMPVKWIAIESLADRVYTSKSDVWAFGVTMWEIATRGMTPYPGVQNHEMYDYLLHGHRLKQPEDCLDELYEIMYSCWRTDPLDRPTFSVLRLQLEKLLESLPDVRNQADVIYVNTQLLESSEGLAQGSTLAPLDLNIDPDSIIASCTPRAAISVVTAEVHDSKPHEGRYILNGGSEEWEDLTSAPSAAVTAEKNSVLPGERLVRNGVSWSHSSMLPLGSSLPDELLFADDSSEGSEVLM

[3] = target: ALK tyrosine kinase receptor (Homo sapiens, UniProt Q9UM73); assay type: subcellular, K-562, COLO 205, SK-N-BE(2) and MV-4-11, Cell lysate; conditions: read-out: Kd apparent
ALK tyrosine kinase receptor, sequence (Q9UM73 whole entry): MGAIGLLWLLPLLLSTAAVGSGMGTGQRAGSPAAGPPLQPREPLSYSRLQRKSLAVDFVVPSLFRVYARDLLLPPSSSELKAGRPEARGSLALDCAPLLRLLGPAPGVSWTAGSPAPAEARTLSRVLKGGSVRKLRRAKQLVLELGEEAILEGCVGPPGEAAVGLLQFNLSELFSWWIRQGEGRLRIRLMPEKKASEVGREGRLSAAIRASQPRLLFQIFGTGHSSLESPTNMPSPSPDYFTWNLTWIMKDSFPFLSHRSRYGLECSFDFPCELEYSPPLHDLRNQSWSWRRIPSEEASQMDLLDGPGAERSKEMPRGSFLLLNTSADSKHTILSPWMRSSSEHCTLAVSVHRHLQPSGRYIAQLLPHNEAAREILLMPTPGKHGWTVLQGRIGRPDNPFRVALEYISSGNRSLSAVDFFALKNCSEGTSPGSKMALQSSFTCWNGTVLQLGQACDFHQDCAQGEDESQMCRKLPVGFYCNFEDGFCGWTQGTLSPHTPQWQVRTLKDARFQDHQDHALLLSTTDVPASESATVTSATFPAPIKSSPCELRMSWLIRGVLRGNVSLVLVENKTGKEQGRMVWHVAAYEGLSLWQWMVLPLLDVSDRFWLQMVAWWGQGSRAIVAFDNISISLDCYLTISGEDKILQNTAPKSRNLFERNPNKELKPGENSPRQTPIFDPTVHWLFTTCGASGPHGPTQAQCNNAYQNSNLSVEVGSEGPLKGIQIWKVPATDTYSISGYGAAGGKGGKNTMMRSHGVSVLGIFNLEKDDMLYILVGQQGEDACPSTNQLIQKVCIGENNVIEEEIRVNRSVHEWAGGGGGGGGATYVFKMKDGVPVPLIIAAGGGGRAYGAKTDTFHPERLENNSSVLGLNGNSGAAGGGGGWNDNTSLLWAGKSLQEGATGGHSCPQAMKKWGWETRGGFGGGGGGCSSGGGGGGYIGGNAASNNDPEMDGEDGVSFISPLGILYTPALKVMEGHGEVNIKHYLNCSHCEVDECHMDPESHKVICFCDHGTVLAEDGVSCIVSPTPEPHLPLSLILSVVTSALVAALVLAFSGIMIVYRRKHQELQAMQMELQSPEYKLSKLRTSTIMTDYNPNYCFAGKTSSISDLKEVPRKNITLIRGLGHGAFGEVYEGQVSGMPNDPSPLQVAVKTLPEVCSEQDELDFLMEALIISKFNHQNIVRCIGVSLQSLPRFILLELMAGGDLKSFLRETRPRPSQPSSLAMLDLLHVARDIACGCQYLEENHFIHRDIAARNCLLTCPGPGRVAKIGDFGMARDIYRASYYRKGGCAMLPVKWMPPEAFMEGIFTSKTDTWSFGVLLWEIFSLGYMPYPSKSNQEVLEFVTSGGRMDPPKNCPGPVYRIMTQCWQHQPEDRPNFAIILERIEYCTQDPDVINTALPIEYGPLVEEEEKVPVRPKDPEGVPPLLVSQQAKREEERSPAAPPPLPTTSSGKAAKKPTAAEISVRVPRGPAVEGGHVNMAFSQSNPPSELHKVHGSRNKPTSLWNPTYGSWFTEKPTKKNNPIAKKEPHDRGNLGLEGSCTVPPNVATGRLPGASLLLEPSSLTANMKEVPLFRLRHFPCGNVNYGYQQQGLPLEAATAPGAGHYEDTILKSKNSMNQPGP

[4] = target: Dual specificity testis-specific protein kinase 2 (Homo sapiens, UniProt Q96S53)
Dual specificity testis-specific protein kinase 2, sequence (Q96S53 whole entry): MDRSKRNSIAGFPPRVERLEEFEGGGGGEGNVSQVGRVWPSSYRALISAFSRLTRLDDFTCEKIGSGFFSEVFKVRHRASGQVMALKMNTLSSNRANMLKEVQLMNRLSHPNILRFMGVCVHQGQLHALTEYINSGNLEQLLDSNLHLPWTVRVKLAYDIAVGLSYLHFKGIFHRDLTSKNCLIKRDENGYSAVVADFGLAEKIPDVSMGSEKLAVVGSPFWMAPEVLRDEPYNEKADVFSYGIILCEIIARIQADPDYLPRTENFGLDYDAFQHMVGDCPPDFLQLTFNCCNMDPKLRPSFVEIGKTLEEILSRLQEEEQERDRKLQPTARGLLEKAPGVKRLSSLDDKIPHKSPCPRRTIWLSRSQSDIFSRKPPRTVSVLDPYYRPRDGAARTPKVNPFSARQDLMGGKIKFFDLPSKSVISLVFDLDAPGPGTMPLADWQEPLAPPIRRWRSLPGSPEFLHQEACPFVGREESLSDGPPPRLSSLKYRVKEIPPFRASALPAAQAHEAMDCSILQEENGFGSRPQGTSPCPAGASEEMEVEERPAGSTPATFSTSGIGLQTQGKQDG

[5] = target: Tyrosine-protein kinase Fgr (Homo sapiens, UniProt P09769)
Tyrosine-protein kinase Fgr, sequence (P09769 whole entry): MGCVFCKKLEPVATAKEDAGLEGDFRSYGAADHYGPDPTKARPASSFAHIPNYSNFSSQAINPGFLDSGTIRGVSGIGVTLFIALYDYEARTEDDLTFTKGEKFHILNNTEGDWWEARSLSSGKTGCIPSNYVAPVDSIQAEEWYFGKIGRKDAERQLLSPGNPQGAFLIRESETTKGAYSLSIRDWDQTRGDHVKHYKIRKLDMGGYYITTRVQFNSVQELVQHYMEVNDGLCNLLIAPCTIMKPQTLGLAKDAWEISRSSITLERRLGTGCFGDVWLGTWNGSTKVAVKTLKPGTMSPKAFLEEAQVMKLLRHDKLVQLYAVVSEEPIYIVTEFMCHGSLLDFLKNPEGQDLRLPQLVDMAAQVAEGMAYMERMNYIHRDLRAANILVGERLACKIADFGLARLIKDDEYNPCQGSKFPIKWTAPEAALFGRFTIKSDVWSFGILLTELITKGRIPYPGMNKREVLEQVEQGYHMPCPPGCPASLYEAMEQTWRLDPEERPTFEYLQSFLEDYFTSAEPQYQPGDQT

[6] = target: Dual specificity tyrosine-phosphorylation-regulated kinase 1B (Homo sapiens, UniProt Q9Y463)
[7] = target: MAP kinase-activated protein kinase 3 (Homo sapiens, UniProt Q16644)
MAP kinase-activated protein kinase 3, sequence (Q16644 whole entry): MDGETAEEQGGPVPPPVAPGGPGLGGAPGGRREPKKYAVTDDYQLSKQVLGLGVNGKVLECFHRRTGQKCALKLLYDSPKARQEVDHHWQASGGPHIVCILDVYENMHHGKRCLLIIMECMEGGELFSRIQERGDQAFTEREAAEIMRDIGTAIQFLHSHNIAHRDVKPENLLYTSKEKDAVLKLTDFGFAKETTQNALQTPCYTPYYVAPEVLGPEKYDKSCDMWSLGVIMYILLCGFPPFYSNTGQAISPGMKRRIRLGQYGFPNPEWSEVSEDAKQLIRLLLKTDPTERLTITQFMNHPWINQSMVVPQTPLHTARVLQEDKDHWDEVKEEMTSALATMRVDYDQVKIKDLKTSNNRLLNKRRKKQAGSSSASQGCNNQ

[8] = target: Tyrosine-protein kinase JAK2 (Homo sapiens, UniProt O60674)
Tyrosine-protein kinase JAK2, sequence (O60674 whole entry): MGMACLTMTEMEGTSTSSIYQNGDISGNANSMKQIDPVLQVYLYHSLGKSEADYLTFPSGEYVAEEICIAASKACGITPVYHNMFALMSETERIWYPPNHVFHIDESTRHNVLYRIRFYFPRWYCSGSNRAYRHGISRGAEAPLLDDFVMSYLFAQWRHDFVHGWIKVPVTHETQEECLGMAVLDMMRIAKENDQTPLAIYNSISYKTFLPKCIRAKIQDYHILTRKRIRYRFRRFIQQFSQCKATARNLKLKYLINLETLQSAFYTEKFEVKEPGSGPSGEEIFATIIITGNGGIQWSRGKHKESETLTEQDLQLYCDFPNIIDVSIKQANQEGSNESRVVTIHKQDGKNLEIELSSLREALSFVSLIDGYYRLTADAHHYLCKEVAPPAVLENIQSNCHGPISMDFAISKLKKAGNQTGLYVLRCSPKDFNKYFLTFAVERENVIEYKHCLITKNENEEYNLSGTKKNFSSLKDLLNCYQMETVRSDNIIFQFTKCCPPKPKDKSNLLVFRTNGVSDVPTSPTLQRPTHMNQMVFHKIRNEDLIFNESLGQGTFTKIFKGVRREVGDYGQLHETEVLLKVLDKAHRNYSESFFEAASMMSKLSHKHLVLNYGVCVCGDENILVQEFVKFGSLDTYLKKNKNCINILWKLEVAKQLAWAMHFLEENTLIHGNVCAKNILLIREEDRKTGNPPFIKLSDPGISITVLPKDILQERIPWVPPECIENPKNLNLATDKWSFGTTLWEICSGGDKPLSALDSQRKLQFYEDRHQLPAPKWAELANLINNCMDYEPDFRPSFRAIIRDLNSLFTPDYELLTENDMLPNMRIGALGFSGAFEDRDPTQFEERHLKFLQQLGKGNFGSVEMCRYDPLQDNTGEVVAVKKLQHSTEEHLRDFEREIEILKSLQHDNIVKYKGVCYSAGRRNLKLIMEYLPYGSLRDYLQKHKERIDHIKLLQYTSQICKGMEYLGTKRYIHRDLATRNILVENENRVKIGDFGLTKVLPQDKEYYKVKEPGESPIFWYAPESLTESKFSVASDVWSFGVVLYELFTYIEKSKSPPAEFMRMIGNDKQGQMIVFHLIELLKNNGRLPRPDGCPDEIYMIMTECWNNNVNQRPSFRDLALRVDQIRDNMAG

[9] = target: T3, Dual specificity mitogen-activated protein kinase kinase 4 (Homo sapiens, UniProt P45985)
T3 sequence (P45985 whole entry): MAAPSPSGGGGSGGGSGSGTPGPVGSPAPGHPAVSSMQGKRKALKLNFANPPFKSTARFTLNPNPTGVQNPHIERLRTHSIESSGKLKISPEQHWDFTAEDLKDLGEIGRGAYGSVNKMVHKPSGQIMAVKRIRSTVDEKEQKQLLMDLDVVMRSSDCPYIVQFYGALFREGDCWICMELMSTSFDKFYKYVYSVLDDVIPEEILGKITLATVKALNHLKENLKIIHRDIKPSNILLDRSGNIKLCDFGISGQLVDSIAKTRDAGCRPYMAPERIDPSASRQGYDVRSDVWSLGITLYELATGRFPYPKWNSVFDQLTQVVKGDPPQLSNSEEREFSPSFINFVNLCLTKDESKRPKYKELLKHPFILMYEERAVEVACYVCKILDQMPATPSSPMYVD

[10] = target: Serine/threonine-protein kinase 38 (Homo sapiens, UniProt Q15208)
Serine/threonine-protein kinase 38, sequence (Q15208 whole entry): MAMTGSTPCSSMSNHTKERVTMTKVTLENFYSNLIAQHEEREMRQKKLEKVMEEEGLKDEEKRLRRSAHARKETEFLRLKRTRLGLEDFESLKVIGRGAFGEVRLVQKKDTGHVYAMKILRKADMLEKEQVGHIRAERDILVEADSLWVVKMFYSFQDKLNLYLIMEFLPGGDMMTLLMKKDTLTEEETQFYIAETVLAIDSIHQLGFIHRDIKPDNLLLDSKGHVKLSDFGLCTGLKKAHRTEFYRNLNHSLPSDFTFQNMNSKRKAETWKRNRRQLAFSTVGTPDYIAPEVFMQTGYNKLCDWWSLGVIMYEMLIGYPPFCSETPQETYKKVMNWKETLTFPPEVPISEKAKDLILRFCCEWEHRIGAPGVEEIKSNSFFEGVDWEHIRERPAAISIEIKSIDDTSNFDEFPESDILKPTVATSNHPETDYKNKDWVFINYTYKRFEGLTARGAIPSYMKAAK

[11] = target: Cyclin-dependent kinase 10 (Homo sapiens, UniProt Q15131)
Cyclin-dependent kinase 10, sequence (Q15131 whole entry): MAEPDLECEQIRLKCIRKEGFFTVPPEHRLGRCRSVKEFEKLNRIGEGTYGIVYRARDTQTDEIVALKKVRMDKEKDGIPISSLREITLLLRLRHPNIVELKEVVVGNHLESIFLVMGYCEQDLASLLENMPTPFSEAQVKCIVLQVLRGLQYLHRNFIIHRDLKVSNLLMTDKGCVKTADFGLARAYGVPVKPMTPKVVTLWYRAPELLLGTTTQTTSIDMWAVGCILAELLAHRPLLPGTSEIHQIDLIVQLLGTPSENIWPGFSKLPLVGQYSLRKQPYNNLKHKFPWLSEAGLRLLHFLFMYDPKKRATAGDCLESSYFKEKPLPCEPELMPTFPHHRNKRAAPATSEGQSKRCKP

[12] = target: Eukaryotic peptide chain release factor GTP-binding subunit ERF3B (Homo sapiens, UniProt Q8IYD1)

Row | SMILES | Kd [1] | Kd [2] | Kd [3] | Kd [4] | Kd [5] | Kd [6] | Kd [7] | Kd [8] | Kd [9] | Kd [10] | Kd [11] | Kd [12]
1 | Cc1ccc(S(=O)(=O)Nc2nc3ccccc3nc2Nc2ccc3nsnc3c2)cc1 | > 30 µM (inactive) | > 30 µM (inactive) | > 30 µM (inactive) | – | – | – | – | – | – | – | – | –
2 | Cc1cc(-c2cc(O)ccc2Cl)cc2nnc(Nc3ccc(OCCN4CCCC4)cc3)nc12 | > 30 µM (inactive) | – | > 30 µM (inactive) | > 30 µM (inactive) | > 30 µM (inactive) | > 30 µM (inactive) | > 30 µM (inactive) | – | – | – | – | –
3 | CNS(=O)(=O)Nc1nccc(Cc2c(C)c3ccc(Oc4ncccn4)cc3oc2=O)c1F [AVUTOMETINIB] | – | – | – | > 30 µM (inactive) | – | – | > 30 µM (inactive) | > 30 µM (inactive) | > 30 µM (inactive) | – | – | –
4 | Cc1ccc(NC(=O)c2ccc(CN3CC[C@H](N(C)C)C3)c(C(F)(F)F)c2)cc1Nc1nccc(-c2cncnc2)n1 [BAFETINIB] | > 30 µM (inactive) | – | > 30 µM (inactive) | > 30 µM (inactive) | – | > 30 µM (inactive) | 0.023 µM (active) | > 30 µM (inactive) | > 30 µM (inactive) | – | > 30 µM (inactive) | > 30 µM (inactive)
5 | Cc1cc2c(F)c(Oc3ncnn4cc(OC[C@@H](C)OC(=O)[C@H](C)N)c(C)c34)ccc2[nH]1 [BRIVANIB ALANINATE] | > 30 µM (inactive) | – | – | > 30 µM (inactive) | – | > 30 µM (inactive) | > 30 µM (inactive) | > 30 µM (inactive) | > 30 µM (inactive) | – | – | –
6 | COC(=O)N[C@@H](C)CNc1nccc(-c2cn(C(C)C)nc2-c2cc(Cl)cc(NS(C)(=O)=O)c2F)n1 [ENCORAFENIB] | – | > 30 µM (inactive) | – | > 30 µM (inactive) | – | > 30 µM (inactive) | – | > 30 µM (inactive) | – | – | > 30 µM (inactive) | > 30 µM (inactive)
7 | CC[C@H](Nc1ncnc2[nH]cnc12)c1nc2cccc(F)c2c(=O)n1-c1ccccc1 [IDELALISIB] | – | – | – | > 30 µM (inactive) | > 30 µM (inactive) | > 30 µM (inactive) | > 30 µM (inactive) | – | > 30 µM (inactive) | > 30 µM (inactive) | – | –
8 | COC(=O)[C@@]1(O)C[C@H]2O[C@]1(C)n1c3ccccc3c3c4c(c5c6ccccc6n2c5c31)C(=O)NC4 [K-252A] | – | 0.041 µM | > 30 µM (inactive) | > 30 µM (inactive) | – | > 30 µM (inactive) | > 30 µM (inactive) | – | > 30 µM (inactive) | > 30 µM (inactive) | > 30 µM (inactive) | –
9 | COc1cc2nccc(Oc3ccc(NC(=O)NC4CC4)c(Cl)c3)c2cc1C(N)=O [LENVATINIB] | – | – | – | – | – | – | > 30 µM (inactive) | > 30 µM (inactive) | – | – | – | –
10 | O=C(Nc1cccc(Cl)c1)Nc1ncc(CCNc2ncnc3ccsc23)s1 [SNS-314] | – | – | – | – | – | – | – | – | > 30 µM (inactive) | – | > 30 µM (inactive) | > 30 µM (inactive)
11 | O=c1sn(-c2cccc3ccccc23)c(=O)n1Cc1ccccc1 [TIDEGLUSIB] | – | > 30 µM (inactive) | – | – | – | – | – | – | – | – | > 30 µM (inactive) | > 30 µM (inactive)
12 | CC(=O)Nc1cccc(-n2c(=O)n(C3CC3)c(=O)c3c(Nc4ccc(I)cc4F)n(C)c(=O)c(C)c32)c1 [TRAMETINIB] | > 30 µM (inactive) | – | – | > 30 µM (inactive) | > 30 µM (inactive) | > 30 µM (inactive) | > 30 µM (inactive) | > 30 µM (inactive) | > 30 µM (inactive) | – | > 30 µM (inactive) | > 30 µM (inactive)
13 | CN1N=C(N)c2cn([C@@H]3O[C@H](COP(=O)(O)O)[C@@H](O)[C@H]3O)c3ncnc1c23 [TRICIRIBINE PHOSPHATE] | – | – | – | – | > 30 µM (inactive) | > 30 µM (inactive) | – | – | – | – | – | –
14 | CC(C)Nc1cc(-c2c[nH]c(C(=O)N[C@H](CO)c3cccc(Cl)c3)c2)c(Cl)cn1 [ULIXERTINIB] | – | > 30 µM (inactive) | – | > 30 µM (inactive) | – | > 30 µM (inactive) | > 30 µM (inactive) | – | > 30 µM (inactive) | – | > 30 µM (inactive) | > 30 µM (inactive)
15 | CCCS(=O)(=O)Nc1ccc(F)c(C(=O)c2c[nH]c3ncc(-c4ccc(Cl)cc4)cc23)c1F [VEMURAFENIB] | – | > 30 µM (inactive) | – | > 30 µM (inactive) | > 30 µM (inactive) | > 30 µM (inactive) | – | > 30 µM (inactive) | – | – | > 30 µM (inactive) | > 30 µM (inactive)
16 | CC[C@@H]1C(=O)N(C)c2cnc(Nc3ccc(C(=O)N[C@H]4CC[C@H](N5CCN(CC6CC6)CC5)CC4)cc3OC)nc2N1C(C)C [VOLASERTIB] | – | – | – | > 30 µM (inactive) | > 30 µM (inactive) | – | – | > 30 µM (inactive) | – | – | > 30 µM (inactive) | –

More lines, now with the values ahead:

Row | Kd [1] | Kd [2] | Kd [3] | Kd [4] | Kd [5] | Kd [6] | Kd [7] | Kd [8] | Kd [9] | Kd [10] | Kd [11] | Kd [12] | SMILES
17 | – | > 30 µM (inactive) | > 30 µM (inactive) | – | – | – | > 30 µM (inactive) | – | – | – | – | – | CCN1CCN(Cc2ccc(-c3cc4c(N[C@H](C)c5ccccc5)ncnc4[nH]3)cc2)CC1 [AEE-788]
18 | > 30 µM (inactive) | > 30 µM (inactive) | > 30 µM (inactive) | – | – | – | – | – | – | > 30 µM (inactive) | – | – | COc1cc(CCc2cc(NC(=O)c3ccc(N4C[C@@H](C)N[C@@H](C)C4)cc3)n[nH]2)cc(OC)c1 [AZD-4547]
19 | > 30 µM (inactive) | – | – | > 30 µM (inactive) | – | > 30 µM (inactive) | – | – | > 30 µM (inactive) | – | – | – | COc1ccc(-c2ccc3c(N4CCOC[C@@H]4C)nc(N4CCOC[C@@H]4C)nc3n2)cc1CO [AZD-8055]
20 | > 30 µM (inactive) | – | > 30 µM (inactive) | > 30 µM (inactive) | – | > 30 µM (inactive) | – | > 30 µM (inactive) | – | – | – | – | O=C1NC(=O)/C(=C/c2ccc3nccc(-c4ccncc4)c3c2)S1 [GSK-1059615]
21 | > 30 µM (inactive) | – | – | – | > 30 µM (inactive) | > 30 µM (inactive) | > 30 µM (inactive) | 0.025 µM (active) | > 30 µM (inactive) | > 30 µM (inactive) | – | > 30 µM (inactive) | O=C(O)[C@]1(Cc2cccc(Nc3nccs3)n2)CC[C@@H](Oc2cccc(Cl)c2F)CC1 [MK-5108]
22 | > 30 µM (inactive) | > 30 µM (inactive) | > 30 µM (inactive) | – | > 30 µM (inactive) | – | > 30 µM (inactive) | – | – | > 30 µM (inactive) | – | – | O=C(Nc1ccc(-c2ccnc(Nc3ccc(N4CCOCC4)cc3)n2)cc1)C1CCCN1 (stereo not given) [XL-019]
